In data set [1] the target is T1, hBAD Ser99 phosphorylation (Homo sapiens, UniProt Q92934).
T1 construct: endogenous in cells; host or cells: MCF7 (A6); 25 carcinoma cell lines of seven cancer types (A7)
T1 sequence (Q92934 1-168): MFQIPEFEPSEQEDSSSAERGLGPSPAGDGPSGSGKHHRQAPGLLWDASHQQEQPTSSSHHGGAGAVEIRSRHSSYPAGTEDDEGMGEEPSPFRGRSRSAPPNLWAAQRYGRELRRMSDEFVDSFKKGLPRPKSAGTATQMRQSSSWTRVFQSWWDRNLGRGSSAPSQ
Briefly: Western blot of BAD Ser99 phosphorylation in MCF7 cells. The data set is classed as cell-based. The method, then: (A) Sensorgrams obtained by SPR analysis of NPB with the BAD protein subunit. The BAD protein subunit was immobilized onto the surface of a CM5 sensor chip. A solution of NPB at variable concentrations (20-100 μM) was injected to generate result binding responses (RU) recorded as a function of time (sec). The results were analyzed using BIA evaluation 3.1. (B) Western blot (WB) analysis was used to assess the level of Ser99 phosphorylation of BAD in MCF7 cells after treatment with NPB. (Below) Calculated IC50 of NPB from dose-response for BAD phosphorylation (Ser99), BAD and β-ACTIN as in shown above by use of ImageJ software from NIH, USA (http://imagej.nih.gov/ij/). (C) WB analysis was used to assess the level of a multiple proteins involved upstream of BAD in MCF7 cells after treatment with NPB. (D) WB analysis was used to assess the level of a multiple protein involved cell survival and cell proliferation in MCF7 cells after treatment with NPB. For WB analysis, soluble whole cell extracts were run on an SDS-PAGE and immunoblotted as described in methodology. β-ACTIN (ACTB) was used as an input control for cell lysate. The sizes of detected protein bands in kDa are shown on the left side.
Phosphorylation of hBAD at residues Ser-75 (mouse BAD serine residue 112) and Ser-99 (mouse BAD serine residue 136) are crucial in regulating the activity of the BCL-2 family of anti-apoptotic proteins. hBAD phosphorylation either at Ser-75 or Ser99 (or the corresponding residues in mouse bad) results in loss of the ability of hBAD to heterodimerize with BCL-xL or BCL-2 [15]. To further validate the predicted target, we first analyzed the effect of NPB on phosphorylation of hBAD at Ser99 by western blot analysis.

The test system of data set [2] is normal hepatocytes (LO2) and immortalized mammary epithelial cells (MCF10A and MCF12A). Briefly: Activity on normal immortalized cells. It counts as cell-based, human. The source says: NPB was subsequently evaluated against panel of normal immortalized mammary epithelial cells (MCF10A and MCF12A), normal hepatocytes (LO2), mammary carcinoma (BT549, MDA-MB-231, MCF7, T47D, BT474), endometrial cancer (Ishikawa, Ecc1, RL95-2, AN3), ovarian cancer (SK-OV-3, OVCAR-2, Caov-3, HEY C2, Ovca433), liver cancer (Hep3B, H2P, H2M), colon cancer (HCT116, DLD-1, Caco-2), prostate cancer (PC3, LNCaP, DU145) and pancreatic cancer (AsPC-1, BxPC-3) cells. […] Using a Laplacian-modified Naïve Bayes classifier, NPB is subjected to in silico analysis which anticipates the human target of NPB as BAD protein.
Effect of NPB (5 μM) on carcinoma cell viability including, mammary, endometrial, ovarian, liver, colon, prostate, and pancreatic carcinoma cell lines. (A) Cell viability (B) caspase 3/7 activities and (C) cytotoxicity were evaluated using ApoTox-GIo™ Triplex Assay Kit as described in methodology. Statistical significance was assessed by an unpaired two-tailed Student's t-test using GraphPad Prism5. The column represents mean of triplicate determinations; bars, ±SD. **P<0.001, *P<0.05. Note: RFU, relative fluorescence unit; RLU, relative luminescence unit, #; non-transformed, immortalized epithelial cells; MB-231, MDA-MB-231. […]

The target in data set [3] is T2, Human recombinant BAD protein (Homo sapiens, UniProt Q92934).
T2 construct: purchased MyBiosource, USA MBS143012
T2 sequence (Q92934 1-168): T1 sequence (Q92934 1-168)
Briefly: Surface plasmon resonance analysis (BIAcore). The data set is classed as binding. The settings on record: SPR. The method, then:
To provide molecular interaction of the most promising candidate, NPB binding affinity to BAD, we performed surface plasmon resonance (SPR) measurements with immobilized BAD subunit using NPB as the analyte. We know that BAD could bind to BAD subunit in vitro. […] The recombinant BAD was immobilized on CM5 sensor chip. To determine the association and dissociation curves, various concentrations of NPB were injected individually onto the surface of a sensor chip coated with BAD. The overlaid sensorgrams shown in FIG. 14 were analyzed collectively.
Molecular interactions were analyzed based on surface plasmon resonance using a BIAcore-2000 system (BIAcore AB, Uppsala, Sweden). Human recombinant BAD protein (Catalog No. MBS143012, MyBiosource, USA) was immobilized on a sensor chip as described by the manufacturer protocol. To examine the interaction of BAD with NPB, various concentrations of NPB (20 to 100 μM) in the running buffer (HBS-EP, pH 7.4, BIAcore AB) were injected onto the surface of the BAD-immobilized sensor chip with a flow rate of 15 μl/min as per the manufacturer's directions. NPB was allowed to interact with BAD subunit for 2 min for association and dissociation, respectively, after which the sensor chip was regenerated by injecting 1 M NaCl for 2 min before the next injection. Using BIA evaluation software 4.1 (BIAcore AB), the kinetic parameters were such as association and dissociation rate constants (ka and kd), dissociation equilibrium constants (Kd) using a 1:1 binding model with mass transfer. Sensograms obtained were overlaid using BIA evaluation software.

The structures appear in SMILES notation. Entries after “also recorded” stand apart in the source; their conditions may differ.

By EC50 is commonly meant the midpoint of the concentration-response curve. The term Kd denotes the concentration at which binding is half-saturated. On to `O=C(NC1CCCC1)c1cccc(C(c2ccccc2O)N2CCN(c3cccc(Cl)c3Cl)CC2)c1` (stereo not shown) [NPB, N-cyclopentyl-3-((4-(2,3-dichlorophenyl)piperazin-1-yl)(2-hydroxyphenyl)methyl) benzamide], for which, in data set [1], the “phosphorylation of hBAD Ser99” value is “dose dependent decrease” and the “total hBAD protein” value was “without a significant change”. The EC50 in data set [1] (ImageJ, read-out: EC50 for inhibition of BAD Ser99 phosphorylation) turned out to be 0.41 ± 0.21 µM. Moreover, in data set [2], the “activity / cytotoxic effect on normal cells” value is “no substantial activity; also recorded: did not have cytotoxic effect”. In data set [3] (1:1 binding model with mass transfer, read-out: dissociation equilibrium constants (Kd)), the Kd was determined as 37.1 µM. Further, the kon in data set [3] (immobilized BAD, NPB 20 to 100 μM, read-out: association rate constant) was found to be 1400 M⁻¹ s⁻¹. For the same compound, the koff in data set [3] (immobilized BAD, NPB 20 to 100 μM, read-out: dissociation rate constant) is 0.054 s⁻¹.

The values above are taken from patent US11292773B2, “Small molecule inhibitors of BCL-2-associated death promoter (BAD) phosphorylation” (NATIONAL UNIVERSITY OF SINGAPORE, priority 2017, dated 2022).
